Laboratory results reported in US12209087B2, “AKT1 modulators” (Alterome Therapeutics, Inc., priority 2022, dated 2025).

Target: T1, full length AKT E17K (Homo sapiens, UniProt P31749, E17K)
T1 construct: host or cells: HEK-293 (ATCC CRL-1573)
Assay: NanoBRET Target Engagement (TE) Assay
Assay type: cell-based
Conditions: competitive displacement of tracer in cells, read-out: AKT1 E17K IC50
Outline: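 Compound and tracer incubated 2 h before luminescence at donor 450 nm and acceptor 600 nm, with extracellular signal inhibited. EC50 by sigmoidal variable-slope regression.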

T1 sequence (P31749 whole entry E17K): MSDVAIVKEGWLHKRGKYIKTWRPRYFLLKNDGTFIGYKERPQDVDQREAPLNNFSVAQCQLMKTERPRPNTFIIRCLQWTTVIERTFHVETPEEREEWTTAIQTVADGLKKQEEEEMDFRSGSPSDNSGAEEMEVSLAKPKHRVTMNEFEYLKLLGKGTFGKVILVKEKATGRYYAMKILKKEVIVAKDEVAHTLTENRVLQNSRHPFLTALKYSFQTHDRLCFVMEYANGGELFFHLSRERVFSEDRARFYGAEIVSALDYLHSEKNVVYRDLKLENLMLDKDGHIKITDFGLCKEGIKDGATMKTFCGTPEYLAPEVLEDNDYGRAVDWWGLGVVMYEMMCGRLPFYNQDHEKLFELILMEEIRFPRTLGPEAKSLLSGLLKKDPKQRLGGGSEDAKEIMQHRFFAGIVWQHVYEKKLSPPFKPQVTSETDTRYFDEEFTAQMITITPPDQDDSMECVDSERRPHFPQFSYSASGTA

Compound	IC50
N#Cc1nccc(NC2CCN(Cc3ccc(-n4c(-c5nccnc5N)nc5ccc(-c6cnn(C7CC7)n6)nc54)cc3)CC2)n1 [Example 631, 4-((1-(4-(2-(3-Aminopyrazin-2-yl)-5-(2-cyclopropyl-2H-1,2,3-triazol-4-yl)-3H-imidazo[4,5-b]pyridin-3-yl)benzyl)piperidin-4-yl)amino)pyrimidine-2-carbonitrile]	< 15 nM
N#CCn1ncc(-c2ccc3nc(-c4nccnc4N)n(-c4ccc(CN5CCC(Nc6ccnc(C#N)n6)CC5)cc4)c3n2)n1 [Example 632, 4-((1-(4-(2-(3-Aminopyrazin-2-yl)-5-(2-(cyanomethyl)-2H-1,2,3-triazol-4-yl)-3H-imidazo[4,5-b]pyridin-3-yl)benzyl)piperidin-4-yl)amino)pyrimidine-2-carbonitrile]	< 15 nM
N#Cc1nccc(NC2CCN(Cc3ccc(-n4c(-c5nccnc5N)nc5ccc(-c6cnn(CC(N)=O)n6)nc54)cc3)CC2)n1 [Example 633, 2-(4-(2-(3-aminopyrazin-2-yl)-3-(4-((4-((2-cyanopyrimidin-4-yl)amino)piperidin-1-yl)methyl)phenyl)-3H-imidazo[4,5-b]pyridin-5-yl)-2H-1,2,3-triazol-2-yl)acetamide]	15 to 60 nM
[2H]c1nn(C)nc1-c1ccc2nc(-c3nccnc3N)n(-c3ccc(CN4CCC(Nc5ccnc(C#N)n5)CC4)cc3)c2n1 [Example 634, 4-((1-(4-(2-(3-Aminopyrazin-2-yl)-5-(2-methyl-2H-1,2,3-triazol-4-yl-5-d)-3H-imidazo[4,5-b]pyridin-3-yl)benzyl)piperidin-4-yl)amino)pyrimidine-2-carbonitrile]	< 15 nM
Cc1nn(C)nc1-c1ccc2nc(-c3nccnc3N)n(-c3ccc(CN4CCC(Nc5ccnc(C#N)n5)CC4)cc3)c2n1 [Example 635, 4-((1-(4-(2-(3-Aminopyrazin-2-yl)-5-(2,5-dimethyl-2H-1,2,3-triazol-4-yl)-3H-imidazo[4,5-b]pyridin-3-yl)benzyl)piperidin-4-yl)amino)pyrimidine-2-carbonitrile]	15 to 60 nM
COc1ccc(-c2ccc3nc(-c4nccnc4N)n(-c4ccc(CN5CCC(Nc6ccnc(C#N)n6)CC5)cc4)c3n2)cn1 [Example 636, 4-((1-(4-(2-(3-Aminopyrazin-2-yl)-5-(6-methoxypyridin-3-yl)-3H-imidazo[4,5-b]pyridin-3-yl)benzyl)piperidin-4-yl)amino)pyrimidine-2-carbonitrile]	< 15 nM
[2H]C([2H])([2H])Oc1ccc(-c2ccc3nc(-c4nccnc4N)n(-c4ccc(CN5CCC(Nc6ccnc(C#N)n6)CC5)cc4)c3n2)cn1 [Example 637, 4-((1-(4-(2-(3-aminopyrazin-2-yl)-5-(6-(methoxy-d3)pyridin-3-yl)-3H-imidazo[4,5-b]pyridin-3-yl)benzyl)piperidin-4-yl)amino)pyrimidine-2-carbonitrile]	< 15 nM
[2H]C([2H])([2H])Oc1ccc(-c2ccc3nc(-c4nccnc4N)n(-c4ccc(CN5CCC(Nc6ccnc(C#N)n6)CC5)cc4)c3n2)nc1 [Example 638, 4-((1-(4-(2-(3-Aminopyrazin-2-yl)-5-(5-(methoxy-d3)pyridin-2-yl)-3H-imidazo[4,5-b]pyridin-3-yl)benzyl)piperidin-4-yl)amino)pyrimidine-2-carbonitrile]	< 15 nM
N#Cc1nccc(NC2CCN(Cc3ccc(-n4c(-c5nccnc5N)nc5ccc(-c6ccc(OCF)nc6)nc54)cc3)CC2)n1 [Example 639, 4-((1-(4-(2-(3-Aminopyrazin-2-yl)-5-(6-(fluoromethoxy)pyridin-3-yl)-3H-imidazo[4,5-b]pyridin-3-yl)benzyl)piperidin-4-yl)amino)pyrimidine-2-carbonitrile]	< 15 nM
[2H]C([2H])(F)Oc1ccc(-c2ccc3nc(-c4nccnc4N)n(-c4ccc(CN5CCC(Nc6ccnc(C#N)n6)CC5)cc4)c3n2)cn1 [Example 640, 4-((1-(4-(2-(3-Aminopyrazin-2-yl)-5-(6-(fluoromethoxy-d2)pyridin-3-yl)-3H-imidazo[4,5-b]pyridin-3-yl)benzyl)piperidin-4-yl)amino)pyrimidine-2-carbonitrile]	< 15 nM
N#Cc1nccc(NC2CCN(Cc3ccc(-n4c(-c5cccnc5N)nc5ccc(-c6ccc(OC7CC7)nc6)nc54)cc3)CC2)n1 [Example 641, 4-((1-(4-(2-(2-Aminopyridin-3-yl)-5-(6-cyclopropoxypyridin-3-yl)-3H-imidazo[4,5-b]pyridin-3-yl)benzyl)piperidin-4-yl)amino)pyrimidine-2-carbonitrile]	< 15 nM
CC(C)Oc1ccc(-c2ccc3nc(-c4cccnc4N)n(-c4ccc(CN5CCC(Nc6ccnc(C#N)n6)CC5)cc4)c3n2)cn1 [Example 642, 4-((1-(4-(2-(2-Aminopyridin-3-yl)-5-(6-isopropoxypyridin-3-yl)-3H-imidazo[4,5-b]pyridin-3-yl)benzyl)piperidin-4-yl)amino)pyrimidine-2-carbonitrile]	< 15 nM
CC(C)c1ccc(-c2ccc3nc(-c4cccnc4N)n(-c4ccc(CN5CCC(Nc6ccnc(C#N)n6)CC5)cc4)c3n2)cn1 [Example 643, 4-((1-(4-(2-(2-Aminopyridin-3-yl)-5-(6-isopropylpyridin-3-yl)-3H-imidazo[4,5-b]pyridin-3-yl)benzyl)piperidin-4-yl)amino)pyrimidine-2-carbonitrile]	< 15 nM
N#Cc1nccc(NC2CCN(Cc3ccc(-n4c(-c5cccnc5N)nc5ccc(-c6ccc(C7CC7)cn6)nc54)cc3)CC2)n1 [Example 644, 4-((1-(4-(2-(2-Aminopyridin-3-yl)-5-(5-cyclopropylpyridin-2-yl)-3H-imidazo[4,5-b]pyridin-3-yl)benzyl)piperidin-4-yl)amino)pyrimidine-2-carbonitrile]	< 15 nM
N#Cc1nccc(NC2CCN(Cc3ccc(-n4c(-c5cccnc5N)nc5ccc(-c6ccc(C(F)F)nc6)nc54)cc3)CC2)n1 [Example 645, 4-((1-(4-(2-(2-Aminopyridin-3-yl)-5-(6-(difluoromethyl)pyridin-3-yl)-3H-imidazo[4,5-b]pyridin-3-yl)benzyl)piperidin-4-yl)amino)pyrimidine-2-carbonitrile]	< 15 nM
N#Cc1nccc(NC2CCN(Cc3ccc(-n4c(-c5cccnc5N)nc5ccc(-c6ccc(C(F)(F)F)nc6)nc54)cc3)CC2)n1 [Example 646, 4-((1-(4-(2-(2-Aminopyridin-3-yl)-5-(6-(trifluoromethyl)pyridin-3-yl)-3H-imidazo[4,5-b]pyridin-3-yl)benzyl)piperidin-4-yl)amino)pyrimidine-2-carbonitrile]	< 15 nM
CCc1ccc(-c2ccc3nc(-c4cccnc4N)n(-c4ccc(CN5CCC(Nc6ccnc(C#N)n6)CC5)cc4)c3n2)nc1 [Example 647, 4-((1-(4-(2-(2-Aminopyridin-3-yl)-5-(5-ethylpyridin-2-yl)-3H-imidazo[4,5-b]pyridin-3-yl)benzyl)piperidin-4-yl)amino)pyrimidine-2-carbonitrile]	< 15 nM
N#Cc1nccc(NC2CCN(Cc3ccc(-n4c(-c5cccnc5N)nc5ccc(-c6ccc(CF)cn6)nc54)cc3)CC2)n1 [Example 648, 4-((1-(4-(2-(2-Aminopyridin-3-yl)-5-(5-(fluoromethyl)pyridin-2-yl)-3H-imidazo[4,5-b]pyridin-3-yl)benzyl)piperidin-4-yl)amino)pyrimidine-2-carbonitrile]	< 15 nM
N#Cc1nccc(NC2CCN(Cc3ccc(-n4c(-c5cccnc5N)nc5ccc(-c6ccc(C(F)F)cn6)nc54)cc3)CC2)n1 [Example 649, 4-((1-(4-(2-(2-Aminopyridin-3-yl)-5-(5-(difluoromethyl)pyridin-2-yl)-3H-imidazo[4,5-b]pyridin-3-yl)benzyl)piperidin-4-yl)amino)pyrimidine-2-carbonitrile]	< 15 nM
N#Cc1nccc(NC2CCN(Cc3ccc(-n4c(-c5cccnc5N)nc5ccc(-c6ccc(C(F)(F)F)cn6)nc54)cc3)CC2)n1 [Example 650, 4-((1-(4-(2-(2-Aminopyridin-3-yl)-5-(5-(trifluoromethyl)pyridin-2-yl)-3H-imidazo[4,5-b]pyridin-3-yl)benzyl)piperidin-4-yl)amino)pyrimidine-2-carbonitrile]	15 to 60 nM
